Data on three compounds can be found in patent publication US20220290106A1, “Method for Promoting Cell Proliferation, and Method for Preparing Cell Cluster” (Osaka University, priority 2019, published 2022).

Experiment [1] has as its system MSC cell aggregates. Put plainly: Test Example 7: aggregate culture 4 of MSCs (3-DG or GO). The format is cell-based. The settings on record: for cell proliferation rate of the MSC cell aggregate: cells counted Day 4 (before treatment) and Day 9, 24 hours treatment, then 10 μM ROCK inhibitor medium; for cell proliferation rate, dependence on concentration: cells counted Day 4 and Day 9, increasing 3-DG/GO concentration; for periphery of the cell aggregate (effect of promoting cell proliferation): treatment time 24 hours from Day 4, then 10 μM ROCK inhibitor medium, Day 9 vs Day 4. The procedure:
Test Example 7 was performed in the same manner as Test Example 6 (aggregate culture 3 of MSCs) except that the culture conditions were changed as follows.
(§1) Medium on Day 0: the above medium containing no ROCK inhibitor
Added reagent: 3-Deoxyglucosone (3-DG) (manufactured by Sigma-Aldrich) • Glyoxal Solution (GO) (manufactured by Sigma-Aldrich) Addition of 3-DG or GO: 3-DG or GO was added after the medium was replaced on the 4th day of culture (Day 4). 3-DG or GO treatment time: 24 hours Medium for replacement:
(§2) Day 2, 4: the above medium containing no ROCK inhibitor
(§3) Day 5, 7, 9: the above medium containing 10 μM ROCK inhibitor
Similarly to Test Example 4, the number of cells was counted on Day 4 (before the treatment) and on Day 9, and the cell proliferation rate was confirmed. As a result, the cell proliferation rate of the MSC cell aggregate was increased by culturing the MSC cell aggregate that had been treated with 3-DG or GO, like the MG treatment.

Experiment [2] has as its system iPS cell aggregates (iPSCs, D2 strain). Put plainly: Test Example 1: aggregate culture 1 of iPS cells. It counts as cell-based. The procedure: iPSC aggregates were cultured under the following culture conditions. FIGS. 1A and 1B show the results. Cell: iPSCs (D2 strain, Np43) Medium: StemFit (registered trademark) A[…] (manufactured by Takara Bio Inc.) Culture vessel: 96 well V-bottom plate (MS-9096V manufactured by Sumitomo Bakelite Co., Ltd.) Cell density: 1316 cells/cm^2 (5×10^2 cells/wells) Culture condition: 37° C., 5% CO2 incubator Amount of medium: 150 μl/well Culture period: 7 clays (Methylglyoxal was added once after the medium was replaced on the 4th day of culture (Day 4).) Medium on Day 0: the above medium containing 10 μM ROCK inhibitor Replacement of medium: 150 μl/well Medium for replacement: the above medium containing no ROCK inhibitor Added reagent: Methylglyoxal Solution (product code: […], 1.17 g/mL, 16.25 M, manufactured by Sigma-Aldrich) Methylglyoxal (MG) concentration: 0, 0.1, 1, 10, 100 mM Imaging: photomicrography on the 4th day of culture (Day 4) (before addition of MG) and the 5th, 6th, and 7th day of culture (Day 5, 6, 7) (after addition of MG) FIGS. 1A and 1B show an example of photomicrographs of iPS cell aggregates before the addition of MG (Day 4) and after the addition of MG (Day 5, 6, 7). FIG. 1B is a partially enlarged view of FIG. 1A

For experiment [3] the test system is unchanged. Put plainly: Test Example 2: aggregate culture 2 of iPSCs (MG 20 minutes, then ROCK inhibitor medium). It counts as cell-based. The settings on record: MG 1.25-20 mM, treatment time 20 minutes on Day 4, then medium with 10 μM ROCK inhibitor; Day 10 vs Day 4. The procedure:
Cell: iPSCs (D2 strain, Np17, feeder less) Medium: StemFit (registered trademark) A[…] (manufactured by Takara Bio Inc.) Culture vessel: 96 well V-bottom plate (MS-9096V manufactured by Sumitomo Bakelite Co., Ltd.) Cell density: 200 cells/well Culture condition: 37° C., 5% CO2 Amount of medium: 150 μl/well Culture period: 10 days and (subculture) 5 days (15 days in total) Medium on Day 0: the above medium containing 10 μM ROCK inhibitor Replacement of medium: 75 μl/well (daily) Medium for replacement: Day 4 to 10: the above medium containing 10 μM ROCK inhibitor Day 1 to 3: the above medium containing no ROCK inhibitor Methylglyoxal concentration: 0, 1.25, 2.5, 5, 10, 15, 20 mM Added reagent: Methylglyoxal Solution (product code: […], 1.17 g/mL, 16.25 M, manufactured by Sigma-Aldrich) Addition of MG: MG was added 20 minutes before the medium was replaced on the 4th day of culture (Day 4). MG treatment time: 20 minutes Imaging: video observation with BicStudio (manufactured by NIKON ENGINEERING CO., LTD.) after addition of MG

Experiment [4] shares this test system. Put plainly: Test Example 3: aggregate culture 3 of iPSCs (MG 24 hours, then ROCK inhibitor medium). The format is cell-based. The settings on record: MG 1.25-20 mM, treatment time 24 hours from Day 4, then medium with 10 μM ROCK inhibitor; Day 10 vs Day 4. The method, then: Test Example 3 was performed in the same manner as Test Example 2 (aggregate culture 2 of iPSCs) except that the culture conditions were changed as follows and the procedures shown in FIG. 3 were used. […] Addition of MG: MG was added after the medium was replaced on the 4th day of culture (Day 4). MG treatment time: 24 hours Medium for replacement: Day 4 to 10: the above medium containing 10 μM ROCK inhibitor Day 1 to 3: the above medium containing no ROCK inhibitor

A further experiment deals with MSC aggregates. Briefly: Test Example 4: aggregate culture 1 of mesenchymal stem cells, cell proliferation rate. It counts as cell-based. The method, then:
MSC aggregates were cultured under the following culture conditions. The number of cells was counted on Day 4 (before the addition of MG) and on Day 9. Using the resulting number of cells, the cell proliferation rate was obtained from the following formula.
Medium: Mesenchymal Stem Cell Growth Medium 2 (manufactured by Takara Bio Inc.) Culture vessel: Micro-Space Cell Culture Plate (manufactured by Kuraray Co., Ltd), 24 well plate (manufactured by Corning) Culture condition: 37° C., 5% CO2 incubator Amount of medium: 3 mL/well Seeding density: 1.0×10^5 cell/well Culture period: 9 days
as §1
Replacement of medium: 1.5 mL/well×3, once every two days (Day 5, 7, 9) Medium for replacement:
as §2, §3
Added reagent: Methylglyoxal Solution (product code: M0252, 1.17 g/mL, 16.25 M, manufactured by Sigma-Aldrich) Methylglyoxal concentration: 0, 0.0075, 0.01, 0.0125, 0.015, 0.02 mM Addition of MG: MG was added after the medium was replaced on the 4th day of culture (Day 4). MG treatment time: 24 hours
Cell proliferation rate=(the number of cells on Day 9)/(the number of cells on […])

A further experiment concerns MSCs (monolayer culture). Put plainly: Monolayer culture of MSCs under the conditions of Test Example 4. The format is cell-based. The settings on record: monolayer culture instead of aggregate culture; presence or absence of MG and ROCK inhibitor. The procedure: Next, MSCs were cultured under the culture conditions of Test Example 4 except that the MSCs were subjected to monolayer culture instead of aggregate culture.

For experiment [5], the system named is MSC cell aggregates. Put plainly: Test Example 5: aggregate culture 2 of MSCs (MG 20 minutes). The format is cell-based. The settings on record: MG 1.25-20 mM, treatment time 20 minutes on Day 4, then 10 μM ROCK inhibitor medium; Day 15 vs Day 4. The procedure: MSC aggregates were cultured under the following culture conditions. […] Medium: Mesenchymal Stem Cell Growth Medium 2 (manufactured by Takara Bio Inc.) Culture vessel: Micro-Space Cell Culture Plate (manufactured by Kuraray Co., Ltd), 24 well plate (manufactured by Corning) Culture condition: 37° C., 5% CO2 incubator Amount of medium: 3 mL/well Seeding density: 1.0×10^5 cell/well Culture period: 15 days Medium on Day 0: the above medium containing no ROCK inhibitor Replacement of medium: 1.5 mL/well×3, once every two days Medium for replacement: Day 2: the above medium containing no ROCK inhibitor Day 4, 6, 8, 10, 12, 14: the above medium containing 10 μM ROCK inhibitor Added reagent: Methylglyoxal Solution (product code: […], 1.17 g/mL, 16.25 M, manufactured by Sigma-Aldrich) Methylglyoxal concentration: 0, 1.25, 2.5, 5, 10, 15, 20 mM Addition of MG: MG was added 20 minutes before the medium was replaced on the 4th day of culture (Day 4). MG treatment time: 20 minutes Imaging: Day 4 (before addition of MG) and Day 15

The test system of experiment [6] is MSC cell aggregates. Briefly: Test Example 6: aggregate culture 3 of MSCs (MG 24 hours). The format is cell-based. The settings on record: MG 1.25-20 mM, treatment time 24 hours from Day 4, then 10 μM ROCK inhibitor medium; Day 15 vs Day 4. The procedure: Test Example 6 was performed in the same manner as Test Example 5 (aggregate culture 2 of MSCs) except that the culture conditions were changed as follows. […] Addition of MG: MG was added after the medium was replaced on the 4th day of culture (Day 4). MG treatment time: 24 hours Medium for replacement: Day 2, 4: the above medium containing no ROCK inhibitor Day 5, 7, 9, 11, 13, 15: the above medium containing 10 μM ROCK inhibitor

In another experiment the test system is HepG2 aggregates. Put plainly: Test Example 8: aggregate culture of HepG2. It counts as cell-based, Human. The following applies: MG 1-20 mM for 24 hours from Day 3, then 10 μM ROCK inhibitor medium. The method, then: HepG2 aggregates were cultured under the following culture conditions. The number of cells was counted on Day 3 (before the addition of MG) and on Day 4, and the cell proliferation rate was confirmed.
Medium: HepG2 Hepatocellular Carcinoma Expansion Media, Human (Cellular Engineering Technologies)
Culture vessel: 24 well plate (manufactured by Coming) Culture condition: 37° C., 5% CO2 incubator Amount of medium: 0.5 mL/well Culture period: 6 days
as §1
Day 2, 3: the above medium containing no ROCK inhibitor
Day 4, 6: the above medium containing 10 μM ROCK inhibitor
Seeding density: 1.0×10^4 cells/cm^2 Replacement of medium: 0.5 mL/well, once every two days Added reagent: Methylglyoxal Solution (manufactured by Sigma-Aldrich) Methylglyoxal concentration: 0, 1, 5, 10, 15, 20 mM Addition of MG: MG was added after the medium was replaced on the 3rd day of culture (Day 3). MG treatment time: 24 hours

Molecules are shown by their SMILES.

As for `O=CC(=O)C[C@H](O)[C@H](O)CO` [3-DG, 3-Deoxyglucosone], in the experiment with MSC cell aggregates [1], the “cell proliferation rate of the MSC cell aggregate” value was “increased”; the “cell proliferation rate, dependence on concentration” value is reported as “tended to be higher with an increase in the 3-DG/GO concentration”; the “periphery of the cell aggregate (effect of promoting cell proliferation)” value is on record as “expand slightly”.

On to `O=CC=O` [GO, glyoxal], for which, in the experiment with MSC cell aggregates [1], the “cell proliferation rate of the MSC cell aggregate” value is listed as “increased”; the “cell proliferation rate, dependence on concentration” value is “tended to be higher with an increase in the 3-DG/GO concentration”; the “periphery of the cell aggregate (effect of promoting cell proliferation)” value is recorded as “expand slightly”.

Take `CC(=O)C=O` [MG, methylglyoxal]: in [2] (MG 0.1, 1, 10, 100 mM), the “cell binding properties in the periphery of the cell aggregate, dependence on MG concentration” value is “tended to be further reduced with an increase in the MG concentration”. Moreover, in [2] (MG 0.1-100 mM added once on Day 4, compared to control not treated with MG), the “cell binding properties in the periphery of the cell aggregate” value is “reduced”. Further, the “periphery (outer circumferential portion) of the cell aggregate, fibrillation state” value in [2] (MG 0.1-100 mM added once on Day 4, photomicrographs Day 5, 6, 7, compared to control not treated with MG) was “became non-fibrillated (unraveled)”. In addition, the “periphery of the cell aggregate (effect of promoting cell proliferation)” value (in [3]; in [4]; in the experiment with MSC cell aggregates [5]; with MSC cell aggregates [6]; in the experiment on HepG2 aggregates) was “expand slightly” throughout. Besides, the cell proliferation rate result with MSC aggregates (MG 0.0075-0.02 mM for 24 hours from Day 4, then 10 μM ROCK inhibitor medium, cell count Day 9, without MG (0 mM) 1.2 times) is recorded as “nearly doubled”; with MSCs (monolayer culture), “did not change significantly”. For the same compound, the “cell proliferation rate, medium containing ROCK inhibitor versus medium containing no ROCK inhibitor” value in the experiment with MSC aggregates (combination of MG and 10 μM ROCK inhibitor compared with MG without ROCK inhibitor) is given as “higher”.
